In patent US11873298B2, “Compounds and uses thereof” (JANSSEN PHARMACEUTICA NV, priority 2017, dated 2024):
Values joined by “and” are separate entries in the source; they are usually repeats but may differ in a detail not shown here. Equal entries are not always repeated.

Experiments:
Format in all cases: cell-based
[1] = target: T1, Ole1 (Saccharomyces cerevisiae, UniProt P21147); assay: Growth inhibition of yeast strain expressing Ole1 as sole desaturase; conditions: for IC50 / OLE1 % Max Inhibition: yeast strain expressing Ole1 as sole desaturase
T1 construct: expressed in transfected cells; host or cells: S. cerevisiae ole1Δ strain (W303 pdr1Δ pdr3Δ background), plasmid pRS316 with TDH3 promoter and CYC1 terminator
T1 sequence (P21147 1-510): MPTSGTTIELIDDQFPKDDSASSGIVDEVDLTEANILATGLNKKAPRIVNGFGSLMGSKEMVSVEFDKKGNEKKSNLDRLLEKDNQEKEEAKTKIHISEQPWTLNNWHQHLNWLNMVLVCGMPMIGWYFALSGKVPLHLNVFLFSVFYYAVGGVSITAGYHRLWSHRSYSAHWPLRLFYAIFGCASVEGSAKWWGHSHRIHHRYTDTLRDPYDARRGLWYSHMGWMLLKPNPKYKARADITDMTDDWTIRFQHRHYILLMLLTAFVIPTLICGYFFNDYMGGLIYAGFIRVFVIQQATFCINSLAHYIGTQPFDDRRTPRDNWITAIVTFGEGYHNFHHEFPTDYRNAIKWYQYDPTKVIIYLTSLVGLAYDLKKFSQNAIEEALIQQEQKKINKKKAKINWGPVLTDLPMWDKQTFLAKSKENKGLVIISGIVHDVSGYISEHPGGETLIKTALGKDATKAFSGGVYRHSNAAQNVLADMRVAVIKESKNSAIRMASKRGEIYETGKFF
Procedure, shortened: (§1)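 Measured by optical density at 600 nm, growth of desaturase-dependent yeast (OLE1 deleted; human SCD1, human SCD5 or yeast Ole1 supplied from plasmid) was scored after 24 h (Ole1) or 40 h (SCD1, SCD5) at 30° C. in galactose media lacking uracil with DMSO-delivered compound.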

[2] = target: T2, SCD1 (Homo sapiens, UniProt O00767); assay: Growth inhibition of humanized yeast strain expressing SCD1 as sole desaturase; conditions: for SCD1 % Max Inhibition / IC50: humanized yeast strain expressing SCD1
T2 construct: host or cells: S. cerevisiae ole1Δ strain (W303 pdr1Δ pdr3Δ background), plasmid pRS316 with TDH3 promoter and CYC1 terminator
T2 sequence (O00767 1-359): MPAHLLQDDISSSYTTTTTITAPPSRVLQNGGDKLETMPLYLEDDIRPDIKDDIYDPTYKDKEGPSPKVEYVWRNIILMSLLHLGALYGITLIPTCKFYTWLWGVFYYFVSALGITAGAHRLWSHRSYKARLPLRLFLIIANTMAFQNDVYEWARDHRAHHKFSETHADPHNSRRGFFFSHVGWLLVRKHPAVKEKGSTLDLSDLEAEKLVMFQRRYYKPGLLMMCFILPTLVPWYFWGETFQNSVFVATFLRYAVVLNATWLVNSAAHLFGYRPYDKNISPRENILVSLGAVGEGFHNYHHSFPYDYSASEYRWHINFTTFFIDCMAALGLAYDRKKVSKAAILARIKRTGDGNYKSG
Procedure, shortened: as §1

[3] = target: T3, SCD5 (Homo sapiens, UniProt Q86SK9); assay: Growth inhibition of humanized yeast strain expressing SCD5 as sole desaturase; conditions: for IC50 / SCD5 % Max Inhibition: humanized yeast strain expressing SCD5
T3 construct: host or cells: S. cerevisiae ole1Δ strain (W303 pdr1Δ pdr3Δ background), plasmid pRS316 with TDH3 promoter and CYC1 terminator
T3 sequence (Q86SK9 1-330): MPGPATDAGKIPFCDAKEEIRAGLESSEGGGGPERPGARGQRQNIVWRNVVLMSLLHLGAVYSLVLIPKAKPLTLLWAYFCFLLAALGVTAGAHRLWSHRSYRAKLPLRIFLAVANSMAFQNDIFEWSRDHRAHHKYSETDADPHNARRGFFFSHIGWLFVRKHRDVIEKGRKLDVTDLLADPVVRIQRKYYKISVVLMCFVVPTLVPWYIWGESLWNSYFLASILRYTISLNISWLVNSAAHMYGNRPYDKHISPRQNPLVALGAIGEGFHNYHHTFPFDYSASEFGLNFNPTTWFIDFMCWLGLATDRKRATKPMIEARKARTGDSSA
Procedure, shortened: as §1

Row | SMILES | growth of yeast expressing OLE1 in presence of inhibitor ([1]; FIG. 6) | half-maximal inhibitory concentration (IC50) ([2]; SCD1 humanized strain, FIG. 6) | half-maximal inhibitory concentration (IC50) ([3]; SCD5 humanized strain, FIG. 6) | IC50 [1] [µM] | OLE1 % Max Inhibition [1] | SCD1 % Max Inhibition [2] | IC50 [3] [µM] | SCD5 % Max Inhibition [3] | IC50 [2] [µM]
1 | Cc1nnc(-c2ccc(N3CCC(Oc4cc(F)ccc4Cl)CC3)nn2)o1 [CAY10566, reference compound] | resistant | low nanomolar | low nanomolar |  |  |  |  |  | 
2 | CC(C)c1ccc(C(=O)N2CCC(c3nc(N4CC5(CCCO5)C4)no3)CC2)cc1 [Compound 336] |  |  |  | > 45 | 86.7% | 56.9% | > 45 | 74.1% | 
3 | Cc1nn(C)c2cc(-c3noc(C4CCN(C(=O)C5CC(=O)N(c6ccccn6)C5)CC4)n3)ccc12 (centres unmarked) [Compound 195] |  |  |  | > 45 | 3.86% | 75.08% | > 45 | 9.78% | > 45
4 | CC(C)n1cc2ccc(-c3noc(C4CCN(C(=O)C5CC(=O)N(c6ccccc6)C5)CC4)n3)cc2n1 (centres unmarked) [Compound 180] |  |  |  | > 45 | 107.78% | 102.85% | > 45 | 82.28% | > 45
5 | Cc1nn(C)c2cc(-c3noc(C4CCN(C(=O)NC(C)(C)C)CC4)n3)ccc12 [Compound 282] |  |  |  | > 45 | 110.18% | 90.54% | 28.9 | 56.23% | 
6 | Cc1nn(C)c2cc(-c3noc(N4CCC(C(=O)N5CCO[C@@H](c6ccccc6)C5)CC4)n3)ccc12 [Compound 210] |  |  |  | > 45 | 2.27% | 30.48% | > 45 | 3.39% | > 45
7 | Cc1ccc(N2CC(C(=O)N3CCC(c4nc(N5CC6(COC6)C5)no4)CC3)CC2=O)nc1 (centres unmarked) [Compound 333] |  |  |  | > 45 | 81.2% | 55.6% | > 45 | 62.3% | > 45
8 | Cc1nn(C)c2cc(-c3noc(N4CCN(C(=O)c5cc(F)ccc5Cl)CC4)n3)ccc12 [Compound 278] |  |  |  | > 45 | 21.08% | 32.22% | > 45 | 10.55% | 
9 | Cc1nn(C)c2cc(-c3noc(C4CCN(C(=O)CNC(=O)c5cccc(C#N)c5)CC4)n3)ccc12 [Compound 268] |  |  |  | > 45 | 4.39% and 0.14% | 79.03% and 65% | > 45 | 8.68% and 2.67% | ≥ 45
10 | Cc1nn(C)c2cc(-c3nsc(C4CCN(C(=O)CNC(=O)c5ccccc5)CC4)n3)ccc12 [Compound 250] |  |  |  | > 45 | 4.41% | 86.09% | > 45 | 14.48% | 
11 | Cc1nn(C)c2cc(-c3noc(C4CCN(C(=O)CNC(=O)c5ccsc5)CC4)n3)ccc12 [Compound 222] |  |  |  | > 45 | 3.59% | 40.42% | > 45 | 1.92% | > 45
12 | CCN1C(=O)CN(C)c2cc(-c3noc(C4CCN(C(=O)CNC(=O)c5ccccc5)CC4)n3)ccc21 [Compound 310] |  |  |  | > 45 | 7.1% | 71.2% | > 45 | 66.6% | 
13 | Cc1nn(C)c2cc(-c3noc(C4CCN(C(=O)[C@H]5CC(=O)N(c6cccc(C#N)c6)C5)CC4)n3)ccc12 [Compound 305] |  |  |  | > 45 | 6.6% and 4.23% | 73.2% and 55.27% | > 45 |  | ≥ 45
14 | O=C([C@H]1CC(=O)N(c2ccccc2)C1)N1CCC(c2nc(N3CC4(COC4)C3)no2)CC1 [Compound 316] |  |  |  | ≥ 45 | 89.26% | 69.01% |  | 80% | ≥ 45
15 | Cc1nn(C)c2cc(-c3noc(C4CCN(C(=O)CNC(=O)c5cc(F)ccc5C(F)(F)F)CC4)n3)ccc12 [Compound 304] |  |  |  | > 45 | 14.7% | 74.9% | > 45 | 51.6% | 
16 | Cc1nn(C)c2cc(-c3noc(C4CCN(C(=O)N[C@@H]5C[C@@H]5c5ccccc5)CC4)n3)ccc12 [Compound 329] |  |  |  | > 45 | 12.5% | 16.2% | > 45 | 13.4% | 
17 | CCOc1ccc(-c2noc(C3CCN(C(=O)CN4Cc5c(F)cccc5C4=O)CC3)n2)cc1OC [Compound 175] |  |  |  | > 45 | 3.00% | 77.47% | > 45 | 77.96% | > 45
18 | Cc1nn(C)c2cc(-c3noc(N4CCN(C(=O)c5ccccc5C(F)(F)F)CC4)n3)ccc12 [Compound 295] |  |  |  | > 45 | 18.4% | 14.4% | > 45 | 9.2% | 
19 | CC(C)n1cc(-c2noc(C3CCN(C(=O)C4CC(=O)N(c5cccc(Cl)c5)C4)CC3)n2)cn1 (centres unmarked) [Compound 338] |  |  |  | > 45 | 85.2% | 60.0% | > 45 | 76.3% | > 45
20 | Cc1nn(C)c2cc(-c3noc(C4CCN(C(=O)C5CC(=O)N(c6cccc(C#N)c6)C5)CC4)n3)ccc12 (centres unmarked) [Compound 168] |  |  |  | > 45 | 4.90% and 8.34% | 114.58% and 74.07% | > 45 |  | > 45
21 | COc1ccc(N2CC(C(=O)N3CCC(c4nc(-c5ccc6c(C)nn(C)c6c5)no4)CC3)CC2=O)cc1 (centres unmarked) [Compound 206] |  |  |  | > 45 | 5.25% | 93.66% | > 45 | 19.89% | > 45
22 | Cc1nn(C)c2cc(-c3noc(C4CCN(C(=O)c5ccc(Cl)cc5)CC4)n3)ccc12 [Compound 291] |  |  |  | > 45 |  | 5.0% and 0.30% | > 45 | 8.5% and 3.29% | 
23 | Cc1nn(C)c2cc(-c3noc(N4CC5(CN(C(=O)CNC(=O)c6ccccc6)C5)C4)n3)ccc12 [Compound 212] |  |  |  | > 45 | 100.82% | 76.79% | > 45 | 76.28% | > 45
24 | Cn1ncc2ccc(-c3noc(C4CCN(C(=O)c5ccnc(-c6ccccc6)c5)CC4)n3)cc21 [Compound 208] |  |  |  | > 45 | 96.63% | 14.04% | > 45 | 5.68% | > 45
25 | Cn1c(=O)[nH]c2ccc(-c3noc(C4CCN(C(=O)CNC(=O)c5ccccc5)CC4)n3)cc21 [Compound 162] |  |  |  | > 45 | 100.35% | 84.54% | > 45 | 76.89% | > 45
